From patent publication US20130157954A1, “METHODS FOR TREATMENT OR PROPHYLAXIS OF KIDNEY OR LIVER DYSFUNCTION” (NPS PHARMACEUTICALS, INC., priority 2010, published 2013)

Assay: Example 2: liver biomarkers (albumin, gamma glutamyl transferase, total bilirubin, ALT, AST, ALP) in short bowel syndrome patients, every four weeks for 24 weeks; also sorted by >10% change from baseline
Type: in vivo, Human
Method: To further confirm the results of Example 1, a further study was conducted involving more individuals and additional diagnostic biomarkers. Human patients with short bowel syndrome were divided into two groups: a control group (43 total individuals) to receive placebo, and an experimental group (42 total individuals) to receive teduglutide at 0.05 mg/kg/day throughout the study. Patients were treated by subcutaneous injection of placebo or the appropriate dose of teduglutide. Known biomarkers of liver function were monitored every four weeks, for 24 weeks. The liver biomarkers tested included albumin, gamma glutamyl transferase, total bilirubin, ALT and AST and ALP. Before administration of placebo or teduglutide, diagnostic biomarker levels were tested to establish a baseline for each individual.
To determine the effect of GLP-2 on the levels of the diagnostic biomarkers, the average level of each biomarker was measured for the placebo and teduglutide treated groups for each visit. Furthermore, the average change from baseline was calculated using the established baseline values. For FIGS. 17-28, p-values were calculated using the t-test.
P values are provided, which were calculated for each distribution of biomarker changes for each week using the chi-squared test.

[1] = Endpoint (last assessment after start of treatment), 0.05 mg/kg/d, m = 42
[2] = Endpoint (last assessment after the start of treatment), 0.05 mg/kg/d

## CC[C@H](C)[C@H](NC(=O)[C@H](Cc1ccccc1)NC(=O)[C@H](CC(=O)O)NC(=O)[C@H](CCCNC(=N)N)NC(=O)[C@H](C)NC(=O)[C@H](C)NC(=O)[C@H](CC(C)C)NC(=O)[C@H](CC(N)=O)NC(=O)[C@H](CC(=O)O)NC(=O)[C@H](CC(C)C)NC(=O)[C@@H](NC(=O)[C@@H](NC(=O)[C@H](CC(N)=O)NC(=O)[C@H](CCSC)NC(=O)[C@H](CCC(=O)O)NC(=O)[C@H](CC(=O)O)NC(=O)[C@H](CO)NC(=O)[C@H](Cc1ccccc1)NC(=O)[C@H](CO)NC(=O)CNC(=O)[C@H](CC(=O)O)NC(=O)CNC(=O)[C@@H](N)Cc1c[nH]cn1)[C@@H](C)O)[C@@H](C)CC)C(=O)N[C@@H](CC(N)=O)C(=O)N[C@@H](Cc1c[nH]c2ccccc12)C(=O)N[C@@H](CC(C)C)C(=O)N[C@H](C(=O)N[C@@H](CCC(N)=O)C(=O)N[C@H](C(=O)N[C@@H](CCCCN)C(=O)N[C@H](C(=O)N[C@H](C(=O)N[C@@H](CC(=O)O)C(=O)O)[C@@H](C)O)[C@@H](C)CC)[C@@H](C)O)[C@@H](C)CC [teduglutide]
0.05 mg/kg/day, Table 3, FIGS. 17-20 and 23-28
  level of diagnostic biomarkers elevated in liver dysfunction vs placebo cohort: lower level, on average
0.05 mg/kg/day, Table 4
  likelihood of >10% decrease in liver biomarkers vs placebo: more likely to experience a >10% decrease
  likelihood of >10% increase in liver biomarkers vs placebo: less likely to experience a >10% increase
0.05 mg/kg/day, as treatment progressed, FIGS. 21 and 22
  measured level of albumin relative to placebo cohort: became elevated
[1]
  ALT: subjects Within 10% of Baseline: 12 (28.6%) n (%)
  ALT: subjects with >10% decrease from Baseline: 25 (59.5%) n (%)
  ALT: subjects with >10% increase from Baseline: 5 (11.9%) n (%)
  AST: subjects Within 10% of Baseline: 11 (26.2%) n (%)
  AST: subjects with >10% decrease from Baseline: 25 (59.5%) n (%)
  AST: subjects with >10% increase from Baseline: 6 (14.3%) n (%)
  Albumin: subjects Within 10% of Baseline: 40 (95.2%) n (%)
  Albumin: subjects with >10% decrease from Baseline: 2 (4.8%) n (%)
  Albumin: subjects with >10% increase from Baseline: 0 n (%)
  Alkaline Phosphatase: subjects Within 10% of Baseline: 12 (28.6%) n (%)
  Alkaline Phosphatase: subjects with >10% decrease from Baseline: 24 (57.1%) n (%)
  Alkaline Phosphatase: subjects with >10% increase from Baseline: 6 (14.3%) n (%)
  Bilirubin: subjects Within 10% of Baseline: 8 (19.0%) n (%)
  Bilirubin: subjects with >10% decrease from Baseline: 27 (64.3%) n (%)
  Bilirubin: subjects with >10% increase from Baseline: 7 (16.7%) n (%)
[2]
  ALKALINE PHOSPHATASE Change from Baseline Median: −22 U/L
  ALT Change from Baseline, Max: 21 U/L
  ALT Change from Baseline, Median: −4 U/L
  ALT Change from Baseline, Min: −60 U/L
  ALT Observed Value, Max: 149 U/L
  ALT Observed Value, Mean: 31.0 U/L
  ALT Observed Value, Min: 7 U/L
  AST Change from Baseline, Max: 14 U/L
  AST Change from Baseline, Mean: −5.4 U/L
  AST Change from Baseline, Median: −3 U/L
  AST Change from Baseline, Min: −47 U/L
  AST Observed Value, Max: 77 U/L
  AST Observed Value, Mean: 27.0 U/L
  AST Observed Value, Median: 24 U/L
  AST Observed Value, Min: 11 U/L
  Albumin Change from Baseline, Max: 3 g/L
  Albumin Change from Baseline, Mean: -0.5 g/L
  Albumin Change from Baseline, Median: 0 g/L
  Albumin Change from Baseline, Min: -8 g/L
  Albumin Observed Value, Max: 48 g/L
  Albumin Observed Value, Median: 42 g/L
  Albumin Observed Value, Min: 33 g/L
  Alkaline Phosphatase Change from Baseline, Max: 33 U/L
  Alkaline Phosphatase Change from Baseline, Min: −122 U/L
  Alkaline Phosphatase Observed Value, Max: 328 U/L
  Alkaline Phosphatase Observed Value, Min: 49 U/L
  Bilirubin Change from Baseline, Max: 3.4 µmol/L
  Bilirubin Change from Baseline, Min: -26.1 µmol/L
  Bilirubin Observed Value, Max: 31.3 µmol/L
  Bilirubin Observed Value, Min: 2.5 µmol/L
  Gamma Glutamyl Transferase Change from Baseline, Max: 46 U/L
  Gamma Glutamyl Transferase Change from Baseline, Median: −6 U/L
  Gamma Glutamyl Transferase Change from Baseline, Min: −144 U/L
  Gamma Glutamyl Transferase Observed Value, Max: 228 U/L
  Gamma Glutamyl Transferase Observed Value, Median: 42 U/L
  Gamma Glutamyl Transferase Observed Value, Min: 7 U/L
Week 2, 0.05 mg/kg/d
  ALKALINE PHOSPHATASE Change from Baseline Median: −8 U/L
  ALT Change from Baseline, Max: 48 U/L
  ALT Change from Baseline, Mean: −8.9 U/L
  ALT Change from Baseline, Median: −5.5 U/L
  ALT Change from Baseline, Min: −58 U/L
  ALT Observed Value, Max: 142 U/L
  ALT Observed Value, Min: 9 U/L
  AST Change from Baseline, Max: 22 U/L
  AST Change from Baseline, Mean: −3.6 U/L
  AST Change from Baseline, Median: −3 U/L
  AST Change from Baseline, Min: −21 U/L
  AST Observed Value, Max: 78 U/L
  AST Observed Value, Mean: 29.0 U/L
  AST Observed Value, Min: 11 U/L
  Albumin Change from Baseline, Max: 3 g/L
  Albumin Change from Baseline, Mean: -0.9 g/L
  Albumin Change from Baseline, Median: -1 g/L
  Albumin Change from Baseline, Min: -5 g/L
  Albumin Observed Value, Max: 47 g/L
  Albumin Observed Value, Median: 42 g/L
  Albumin Observed Value, Min: 35 g/L
  Alkaline Phosphatase Change from Baseline, Max: 27 U/L
  Alkaline Phosphatase Change from Baseline, Min: −76 U/L
  Alkaline Phosphatase Observed Value, Max: 298 U/L
  Alkaline Phosphatase Observed Value, Min: 53 U/L
  Bilirubin Change from Baseline, Max: 8.6 µmol/L
  Bilirubin Change from Baseline, Min: -18.2 µmol/L
  Bilirubin Observed Value, Max: 57.4 µmol/L
  Bilirubin Observed Value, Min: 2.4 µmol/L
  Gamma Glutamyl Transferase Change from Baseline, Max: 117 U/L
  Gamma Glutamyl Transferase Change from Baseline, Mean: 7.4 U/L
  Gamma Glutamyl Transferase Change from Baseline, Median: 2.5 U/L
  Gamma Glutamyl Transferase Change from Baseline, Min: −48 U/L
  Gamma Glutamyl Transferase Observed Value, Max: 279 U/L
  Gamma Glutamyl Transferase Observed Value, Min: 11 U/L
Week 2, 0.05 mg/kg/d, m = 40
  ALT: subjects Within 10% of Baseline: 10 (25.0%) n (%)
  ALT: subjects with >10% decrease from Baseline: 23 (57.5%) n (%)
  ALT: subjects with >10% increase from Baseline: 7 (17.5%) n (%)
  AST: subjects Within 10% of Baseline: 15 (37.5%) n (%)
  AST: subjects with >10% decrease from Baseline: 20 (50.0%) n (%)
  AST: subjects with >10% increase from Baseline: 5 (12.5%) n (%)
  Albumin: subjects Within 10% of Baseline: 37 (92.5%) n (%)
  Albumin: subjects with >10% decrease from Baseline: 3 (7.5%) n (%)
  Albumin: subjects with >10% increase from Baseline: 0 n (%)
  Alkaline Phosphatase: subjects Within 10% of Baseline: 19 (47.5%) n (%)
  Alkaline Phosphatase: subjects with >10% decrease from Baseline: 15 (37.5%) n (%)
  Alkaline Phosphatase: subjects with >10% increase from Baseline: 6 (15.0%) n (%)
